Laboratory results as given in US11110114B2, “Dinucleotides” (OXFORD UNIVERSITY INNOVATION LIMITED, priority 2017, dated 2021).
Where two headings read alike, the source gives them in different places. In the oligonucleotide strings, read from the 5' end, every base follows the letter of its sugar. An asterisk marks phosphorothioate; unmarked linkages are phosphodiester. Other units and linkages are bracketed, terminal groups are in braces. A string of capitals states the bases alone. [tz] = triazole internucleoside linkage; l = locked nucleic acid (LNA); [5mC] = 5-methylcytosine; d = 2'-deoxy (DNA)

Assays:
Format in all cases: binding
[1] = tested on: RNA Target 3′-rGAG UGM UAG ACG A; test: Mismatch discrimination by UV melting (Table 3)
Experimental: (§1) UV DNA melting curves were recorded in a Cary 4000 Scan UV-Visible Spectrophotometer using 3 μM of each oligonucleotide in a 10 mM phosphate buffer containing 200 mM NaCl at pH 7.0. Samples were annealed by heating to 85° C. (10° C./min) and then slowly cooling to 20° C. (1° C./min). As these six successive cycles (heating and cooling) were performed at a gradient of 1° C./min, the change in UV absorbance at 260 nm was recorded. The melting temperature was calculated from the 1st derivative of the melting curve using in built software.

[2] = tested on: DNA target 5′-dGCT GCA GGC GTC G (SEQ ID NO: 35); settings: for Tm DNA target: pH 7
[3] = tested on: RNA target 5′-rGCU GCA GGC GUC G (SEQ ID NO: 36); settings: for Tm RNA target: pH 7
[4] = tested on: DNA target: 5′-dGCT GGA GAG GTC G (SEQ ID NO: 39)
[5] = tested on: RNA Target 3′-rGCUGCGMACGUCG; test: Mismatch discrimination by UV melting, single triazole linkage MeC-T step (Table 6)
[6] = tested on: DNA target: 5′-dGCT GCA AGC GTC G (SEQ ID NO: 48); test: UV melting, single triazole linkage, DNA target (Table 8)
[7] = tested on: RNA target: 5′-rGCU GCA AGC GUC G (SEQ ID NO: 49); test: UV melting, single triazole linkage, RNA target (Table 8)
[8] = tested on: RNA target; 5′-rGCU AGA GAA GUC G (SEQ ID NO: 18); test: UV melting, two triazole linkages, RNA target (Table 9); settings: for TM RNA TARGET: two MeC-T steps
Experimental: as §1
(§2) Next, oligonucleotides incorporating two triazole inter-nucleotide linkage steps were prepared by templated CuAAC click ligation reactions in the presence of a complementary splint. The ligated oligonucleotides were purified by denaturating 20% polyacrylamide gel electrophoresis and were evaluated for their binding affinity for complementary DNA/RNA strands (Table 9). […] When compared to unmodified ON7, a drop of only 0.8° C./modification was observed (ON8, RNA target). […] Since the improvement in binding affinity is specific for DNA:RNA hybrids, triazole-linked LNA could find use in selective probes for RNA targeting.

[9] = tested on: DNA target; 5′-dGCT AGA GAA GTC G (SEQ ID NO: 52); test: UV melting, two triazole linkages, DNA target (Table 9); settings: two MeC-T steps
Experimental: as §1, §2

[10] = fully matched RNA target (M = A)
[11] = mismatch M = C, relative to the fully matched duplex (M = A)
[12] = mismatch M = G, relative to the fully matched duplex (M = A)
[13] = mismatch M = U, relative to the fully matched duplex (M = A)
[14] = 10 mM phosphate, 200 mM NaCl, pH 7.0, 3.0 μM each strand
[15] = relative to the unmodified duplex (ON1)

5′-CTC ACT ATC TG^MeCT (DNA dCdTdCdAdCdTdAdTdCdTdGd[5mC]dT) [ON100, reference compound]
TM M = A [1, 10]: 54.8 °C | ΔTM U ([1]; mismatch RNA target M = U, change in Tm relative to the fully matched duplex (M = A)): -11.3

5′-d CGACG^MeCp^MeCTGCAGC (DNA dCdGdAdCdGd[5mC]d[5mC]dTdGdCdAdGdC) [ON33, reference compound]
Tm DNA target [2]: 68.7 °C | Tm RNA target [3]: 69.1 °C

5′-d CGACG^MeCp^MeC^LTGCAGC (DNA dCdGdAdCdGd[5mC]l[5mC]dTdGdCdAdGdC) [ON34, reference compound]
ΔTm DNA target [2]: +3.3 | Tm DNA target [2]: 72 °C | ΔTm RNA target [3]: +5.6 | Tm RNA target [3]: 74.7 °C

5′-d CGACG^MeCt^MeCTGCAGC (DNA dCdGdAdCdGd[5mC][tz]d[5mC]dTdGdCdAdGdC) [ON12]
ΔTm DNA target [2]: -6.4 | Tm DNA target [2]: 62 °C | ΔTm RNA target [3]: -5.8 | Tm RNA target [3]: 63.4 °C

5′-dCGACG^MeCt^MeC^LTGCAGC (DNA dCdGdAdCdGd[5mC][tz]l[5mC]dTdGdCdAdGdC) [ON11]
ΔTm DNA target [2]: -5.1 | Tm DNA target [2]: 63.5 °C | ΔTm RNA target [3]: -0.5 | Tm RNA target [3]: 68.6 °C

5′-dCGA^MeCp^MeCTCT^MeCp^MeCAGC (DNA dCdGdAd[5mC]d[5mC]dTdCdTd[5mC]d[5mC]dAdGdC) [ON35, reference compound]
Tm DNA target [4]: 66.6 °C

5′-dCGA^MeCp^MeC^LTCT^MeCp^MeC^LAGC [ON36, reference compound]
Tm DNA target [4]: 72.2 °C | ΔTm/mod DNA target [4]: +2.8

5′-dCGA^MeCt^MeCTCT^MeCt^MeCAGC [ON14]
Tm DNA target [4]: 51.9 °C | ΔTm/mod DNA target [4]: -7.3

5′-dCGA^MeCt^MeC^LTCT^MeCt^MeC^LAGC [ON13]
Tm DNA target [4]: 56.4 °C | ΔTm/mod DNA target [4]: -5.1

CGACG^MeCTTGCAGC (dCdGdAdCdGd[5mC]dTdTdGdCdAdGdC) [ON1, unmodified 13-mer, reference compound]
TM M = A [5, 10]: 62.8 °C | ΔTM C [5, 11]: -16.3 | ΔTM G [5, 12]: -3.9 | ΔTM U [5, 13]: -13.7 | TM DNA TARGET [6, 14]: 64.2 °C | TM RNA TARGET [7, 14]: 62.8 °C

CGACG^MeCT^LTGCAGC (DNA dCdGdAdCdGd[5mC]lTdTdGdCdAdGdC) [ON4, reference compound]
TM M = A [5]: 68.9 °C | ΔTM C [5]: -15.2 | ΔTM G [5]: -4.8 | ΔTM U [5]: -13.7 | ΔTM DNA TARGET [6]: 3.3 °C | TM DNA TARGET ([6]; pH 7): 67.5 °C | ΔTM RNA TARGET [7]: 6.1 °C | TM RNA TARGET ([7]; pH 7): 68.9 °C

CGACG^MeC^LtTTGCAGC (dCdGdAdCdGl[5mC][tz]dTdTdGdCdAdGdC) [ON5, LNA on the 5′-side of the triazole]
TM DNA TARGET [6, 14]: 52.7 °C | ΔTM DNA TARGET [6, 15]: -11.5 °C | TM RNA TARGET [7, 14]: 55.5 °C | additional stabilising effect of LNA on the 5′-side of the triazole ([7]; DNA:RNA hybrids or DNA duplexes (Table 8)): no significant additional stabilising effect | ΔTM RNA TARGET [7, 15]: -7.2 °C

CGACG^MeC^LtT^LTGCAGC (DNA dCdGdAdCdGl[5mC][tz]lTdTdGdCdAdGdC) [ON6]
ΔTM DNA TARGET [6]: -5.8 | TM DNA TARGET ([6]; pH 7): 58.4 °C | additional stabilising effect of LNA on the 5′-side of the triazole [7]: no significant additional stabilising effect | ΔTM RNA TARGET [7]: +0.1 | TM RNA TARGET ([7]; pH 7): 62.9 °C

CGACG^MeCtTTGCAGC [ON3]
TM M = A [5, 10]: 56.6 °C | ΔTM C [5, 11]: -16.1 | ΔTM G [5, 12]: -2.2 | ΔTM U [5, 13]: -12.9 | TM DNA TARGET [6, 14]: 55.3 °C | ΔTM DNA TARGET [6, 15]: -8.9 °C | TM RNA TARGET [7, 14]: 56.6 °C | ΔTM RNA TARGET [7, 15]: -6.2 °C

CGACG^MeCtT^LTGCAGC (DNA dCdGdAdCdGd[5mC][tz]lTdTdGdCdAdGdC) [ON2]
TM M = A [5]: 62 °C | ΔTM C [5]: -15.6 | ΔTM G [5]: -3.3 | ΔTM U [5]: -13.4 | increase in thermal stability compared to the duplex containing only the triazole linkage [6]: 2.9 | ΔTM DNA TARGET [6]: −6.0 | TM DNA TARGET ([6]; pH 7): 58.2 °C | increase in Tm relative to the duplex with only the triazole linkage [7]: 5.4 | ΔTM RNA TARGET [7]: −0.8 | TM RNA TARGET ([7]; pH 7): 62 °C

CGA^MeCTTCT^MeCTAGC (dCdGdAd[5mC]dTdTdCdTd[5mC]dTdAdGdC) [ON7, unmodified 13-mer, reference compound]
TM RNA TARGET [8]: 58.8 °C | TM DNA TARGET [9]: 57.1 °C

CGA^MeCT^LTCT^MeCT^LAGC (dCdGdAd[5mC]lTdTdCdTd[5mC]lTdAdGdC) [ON10, two LNA, no triazole, reference compound]
TM RNA TARGET [8]: 70.0 °C | TM DNA TARGET [9]: 62.2 °C

CGA^MeCtTTCT^MeCtTAGC [ON9]
TM RNA TARGET [8]: 47.1 °C | TM DNA TARGET [9]: 42.3 °C

CGA^MeCtT^LTCT^MeCtT^LAGC [ON8]
drop in Tm compared to unmodified ON7 ([8]; RNA target): 0.8 °C/modification | increase in Tm relative to oligonucleotides with two triazole linkages without 3′-LNA ([8]; RNA target, compare ON8 and ON9): 5.0 °C/modification | TM RNA TARGET [8]: 57.1 °C | TM DNA TARGET [9]: 48.0 °C
